Assay results published in the NIST ThermoML archive (doi:10.1016/j.fluid.2018.05.032).
Where “and” joins values, the source holds several entries; their conditions need not be identical. Identical values can stand only once.

Columns and labels:
[1] = for vapor or sublimation pressure: Closed cell (Static) method; for Normal melting temperature: DTA
[2] = Molar enthalpy of transition or fusion; conditions: Crystal; DSC
[3] = molar heat capacity at constant pressure; conditions: 101.33 kPa, DSC

CCNCCO [2-(ethylamino)ethanol]
Conditions | molar heat capacity at constant pressure [J/K/mol] | vapor or sublimation pressure
[1], 238.05 K, Crystal | – | 5e-05 kPa and 4.9e-05 kPa and 4.8e-05 kPa
[1], 243.07 K, Crystal | – | 0.000113 kPa and 0.000112 kPa
[1], 243.07 K, Metastable liquid | – | 0.000222 kPa and 0.000223 kPa and 0.000221 kPa
[1], 248.11 K, Metastable liquid | – | 0.000424 kPa and 0.000423 kPa
[1], 248.13 K, Crystal | – | 0.000251 kPa and 0.000252 kPa
[1], 248.14 K, Crystal | – | 0.000253 kPa
[1], 253.13 K, Crystal | – | 0.000545 kPa and 0.000544 kPa and 0.000546 kPa
[1], 253.13 K, Metastable liquid | – | 0.000783 kPa and 0.000784 kPa and 0.000781 kPa
[1], 258.13 K, Crystal | – | 0.001146 kPa
[1], 258.13 K, Metastable liquid | – | 0.001403 kPa and 0.001401 kPa
[1], 258.14 K, Crystal | – | 0.001142 kPa and 0.001139 kPa
[1], 258.14 K, Metastable liquid | – | 0.001403 kPa
[1], 263.13 K, Metastable liquid | – | 0.002453 kPa
[1], 263.14 K, Crystal | – | 0.002334 kPa and 0.002326 kPa and 0.00232 kPa
[1], 263.14 K, Metastable liquid | – | 0.002454 kPa
[1], 268.14 K, Liquid | – | 0.004201 kPa and 0.004205 kPa and 0.004206 kPa
[1], 273.14 K, Liquid | – | 0.007045 kPa and 0.007039 kPa and 0.007052 kPa
[1], 278.14 K, Liquid | – | 0.01158 kPa
[1], 283.14 K, Liquid | – | 0.01862 kPa and 0.01863 kPa
[1], 288.14 K, Liquid | – | 0.02935 kPa and 0.02936 kPa and 0.02934 kPa
[1], 293.13 K, Liquid | – | 0.04545 kPa and 0.04543 kPa
[1], 298.14 K, Liquid | – | 0.06913 kPa and 0.06915 kPa
[1], 303.13 K, Liquid | – | 0.1034 kPa
[1], 303.14 K, Liquid | – | 0.1035 kPa
[1], 308.14 K, Liquid | – | 0.1525 kPa
[3], 265 K, Liquid | 215.4 | –
[3], 270 K, Liquid | 217.1 | –
[3], 275 K, Liquid | 218.8 | –
[3], 280 K, Liquid | 220.3 | –
[3], 285 K, Liquid | 222 | –
[3], 290 K, Liquid | 223.6 | –
[3], 295 K, Liquid | 225.5 | –
[3], 300 K, Liquid | 227.7 | –
[3], 305 K, Liquid | 229.9 | –
[3], 310 K, Liquid | 232.1 | –
[3], 315 K, Liquid | 234.6 | –
[3], 320 K, Liquid | 237 | –
[3], 325 K, Liquid | 239.5 | –
[3], 330 K, Liquid | 242 | –
[3], 335 K, Liquid | 244.4 | –
[3], 340 K, Liquid | 247 | –
[3], 345 K, Liquid | 249.9 | –
[3], 350 K, Liquid | 252.9 | –
[3], 355 K, Liquid | 255.9 | –

Conditions | Normal melting temperature [°C]
[1], Crystal | -9.2

Conditions | Molar enthalpy of transition or fusion [kJ/mol]
[2] | 16.5

CC(C)NCCO [2-isopropylaminoethanol]
Conditions | molar heat capacity at constant pressure [J/K/mol] | vapor or sublimation pressure
[1], 248.13 K, Metastable liquid | – | 0.000252 kPa and 0.000251 kPa
[1], 253.14 K, Metastable liquid | – | 0.000472 kPa
[1], 253.15 K, Crystal | – | 0.000258 kPa and 0.000257 kPa and 0.000254 kPa
[1], 253.15 K, Metastable liquid | – | 0.000471 kPa and 0.000472 kPa
[1], 258.14 K, Crystal | – | 0.000482 kPa and 0.00048 kPa and 0.000479 kPa
[1], 258.15 K, Metastable liquid | – | 0.000864 kPa
[1], 263.15 K, Crystal | – | 0.000926 kPa and 0.000923 kPa and 0.000921 kPa
[1], 263.15 K, Metastable liquid | – | 0.001546 kPa and 0.001544 kPa
[1], 268.14 K, Crystal | – | 0.00171 kPa and 0.001709 kPa
[1], 268.14 K, Metastable liquid | – | 0.002688 kPa
[1], 273.14 K, Crystal | – | 0.00318 kPa and 0.003182 kPa and 0.003174 kPa
[1], 273.14 K, Metastable liquid | – | 0.004591 kPa
[1], 273.15 K, Metastable liquid | – | 0.004589 kPa and 0.00459 kPa
[1], 278.14 K, Crystal | – | 0.005875 kPa and 0.005872 kPa and 0.00587 kPa
[1], 278.14 K, Metastable liquid | – | 0.007669 kPa and 0.007676 kPa and 0.007665 kPa
[1], 283.14 K, Crystal | – | 0.01065 kPa and 0.01066 kPa and 0.01068 kPa
[1], 283.14 K, Metastable liquid | – | 0.01257 kPa
[1], 288.14 K, Crystal | – | 0.01909 kPa and 0.01911 kPa
[1], 288.15 K, Crystal | – | 0.0191 kPa
[1], 288.15 K, Metastable liquid | – | 0.0202 kPa
[1], 293.14 K, Liquid | – | 0.03179 kPa
[1], 298.11 K, Liquid | – | 0.04899 kPa
[1], 298.12 K, Liquid | – | 0.0492 kPa
[1], 298.14 K, Liquid | – | 0.04914 kPa and 0.04915 kPa
[1], 298.17 K, Liquid | – | 0.04928 kPa
[1], 303.04 K, Liquid | – | 0.07439 kPa and 0.0744 kPa and 0.07435 kPa
[1], 303.14 K, Liquid | – | 0.0747 kPa and 0.07469 kPa and 0.07473 kPa
[1], 308.01 K, Liquid | – | 0.1111 kPa
[1], 308.03 K, Liquid | – | 0.1112 kPa
[1], 308.04 K, Liquid | – | 0.1112 kPa
[1], 308.14 K, Liquid | – | 0.1119 kPa
[1], 308.15 K, Liquid | – | 0.1119 kPa and 0.1118 kPa
[1], 313 K, Liquid | – | 0.164 kPa
[1], 313.01 K, Liquid | – | 0.1642 kPa
[1], 317.9 K, Liquid | – | 0.2372 kPa and 0.2373 kPa
[1], 322.97 K, Liquid | – | 0.3405 kPa
[1], 322.98 K, Liquid | – | 0.3407 kPa
[1], 327.95 K, Liquid | – | 0.4814 kPa and 0.4815 kPa
[1], 332.99 K, Liquid | – | 0.6731 kPa and 0.6728 kPa
[1], 337.93 K, Liquid | – | 0.9221 kPa and 0.9223 kPa
[1], 342.94 K, Liquid | – | 1.257 kPa
[3], 265 K, Metastable liquid | 240.4 | –
[3], 270 K, Metastable liquid | 243.1 | –
[3], 275 K, Metastable liquid | 245.8 | –
[3], 280 K, Metastable liquid | 248.5 | –
[3], 285 K, Metastable liquid | 251 | –
[3], 290 K, Liquid | 253.8 | –
[3], 295 K, Liquid | 256.9 | –
[3], 300 K, Liquid | 260.1 | –
[3], 305 K, Liquid | 263.3 | –
[3], 310 K, Liquid | 266.6 | –
[3], 315 K, Liquid | 270.1 | –
[3], 320 K, Liquid | 273.5 | –
[3], 325 K, Liquid | 277.2 | –
[3], 330 K, Liquid | 280.7 | –
[3], 335 K, Liquid | 284.3 | –
[3], 340 K, Liquid | 287.7 | –
[3], 345 K, Liquid | 291.1 | –
[3], 350 K, Liquid | 294.9 | –
[3], 355 K, Liquid | 298.5 | –

Conditions | Normal melting temperature [°C]
[1], Crystal | 16

Conditions | Molar enthalpy of transition or fusion [kJ/mol]
[2] | 19

CCN(CC)CCO [(diethylamino)ethanol]
Liquid
Conditions | molar heat capacity at constant pressure [J/K/mol] | vapor or sublimation pressure
[1], 273.64 K | – | 0.03488 kPa and 0.0349 kPa and 0.03489 kPa
[1], 278.14 K | – | 0.05131 kPa and 0.05133 kPa
[1], 278.15 K | – | 0.05134 kPa
[1], 283.14 K | – | 0.07733 kPa
[1], 283.15 K | – | 0.07737 kPa
[1], 288.15 K | – | 0.1146 kPa
[1], 293.14 K | – | 0.167 kPa and 0.1669 kPa
[1], 298.15 K | – | 0.2393 kPa
[1], 303.14 K | – | 0.3378 kPa and 0.3379 kPa
[1], 303.15 K | – | 0.338 kPa
[1], 308.15 K | – | 0.4708 kPa and 0.4709 kPa
[3], 265 K | 260.6 | –
[3], 270 K | 263.9 | –
[3], 275 K | 267.1 | –
[3], 280 K | 270 | –
[3], 285 K | 272.8 | –
[3], 290 K | 275.6 | –
[3], 295 K | 278.7 | –
[3], 300 K | 281.8 | –
[3], 305 K | 284.7 | –
[3], 310 K | 287.6 | –
[3], 315 K | 290.5 | –
[3], 320 K | 293.2 | –
[3], 325 K | 295.8 | –
[3], 330 K | 298.2 | –
[3], 335 K | 300.4 | –
[3], 340 K | 302.7 | –
[3], 345 K | 305.1 | –
[3], 350 K | 307.7 | –
[3], 355 K | 309.9 | –
